# Publication PMC12055641, “The Study of Antistaphylococcal Potential of Omiganan and Retro-Omiganan Under Flow Conditions” (Probiotics and Antimicrobial Proteins, 2024)
# No end group written: not given here.
# Key:
# S. aureus ATCC 6538 = settings: ATCC 6538, reference strain
# [1] = test system: S. aureus ATCC 6538 biofilm; settings: ATCC 6538, reference strain
# [2] = test system: S. aureus clinical strain 005S
# Source text: (§1) Clinical S. aureus strains were collected from patients with atopic dermatitis during their visits to the Outpatient Clinic and hospitalization in the Department of Dermatology, Venereology and Allergology at Medical University of Gdańsk (following the approval from the ethics committee, Approval Number NKBBN/242–477/2014). Reference strains of S. aureus ATCC 25923, S. aureus ATCC 33591, S. aureus ATCC 9144, and S. aureus ATCC 12598 were obtained from the American Type Culture Collection. All the strains were stored at − 80 °C in Roti®-Store cryo vials (Carl Roth GmbH, Karlsruhe, Germany) and before the tests were transferred into fresh Mueller–Hinton Medium (BioMaxima, Lublin, Poland) and incubated for 24 h at 37 °C. Subsequently, each bacterial inoculum was seeded on Mueller–Hinton agar plates (BioMaxima) and incubated again for 24 h. The cultures prepared in this way were used in further antimicrobial assays. Minimum inhibitory concentrations (MICs) were determined according to the Clinical and Laboratory Standards Institute recommendations. […] The experiments were conducted on 96-well microtiter plates, with a final volume of 100 μL. Additionally, in the case of daptomycin, the medium was supplemented with Ca^2+ (50 mg/L). Cell densities were adjusted spectrophotometrically (Multiskan™ GO Microplate Spectrophotometer, Thermo Scientific) at 600 nm. The MICs were taken as the lowest drug concentration at which a visible growth of the microorganisms was inhibited. Minimum biofilm eliminating concentrations (MBECs) were determined on 96-well flat-bottomed microtiter polystyrene plates with resazurin (7-hydroxy-3H-phenoxazin-3-one 10-oxide sodium salt) as a cell viability reagent. To do this, the plates were filled with 100 μL of the initial inoculums of bacteria (0.5 × 10^7 CFU/mL) in the Mueller–Hinton broth and incubated for 24 h at 37 °C. […] After 24 h of incubation, 20 μL of resazurin (4 mg/mL) was added to each well and the MBEC values were read. Minimum biofilm inhibitory concentrations (MBICs) were also determined on 96-well flat-bottomed microtiter polystyrene plates as described previously. To do this, 50 μL of the compounds in the concentration range, diluted MHB, were prepared. Subsequently, the 50 μL of the staphylococcal inoculums were added to reach the same density of bacteria as that in the MBEC assay. After 24 h of incubation at 37 °C, the wells were rinsed three times with PBS and the fresh medium (100 μL) with resazurin (0.6 mg/mL) was added. Then, after 1 h of incubation, MBICs were read. […] All experiments were conducted in triplicate.
# [3] = test system: S. aureus clinical strain 015N (MRSA) biofilm; settings: clinical strain 015N biofilm, 24 h
# Source text: as §1
# [4] = test system: S. aureus ATCC 9144 biofilm; settings: ATCC 9144, reference strain
# Source text: as §1
# [5] = test system: S. aureus clinical strain 015N (MRSA); settings: 24 h
# Source text: as §1
# [6] = test system: S. aureus clinical strain 031S biofilm
# Source text: as §1
# [7] = test system: S. aureus clinical strain 009S
# Source text: as §1
# [8] = test system: S. aureus clinical strain 004N (MRSA) biofilm; settings: clinical strain 004N biofilm, 24 h
# Source text: as §1
# [9] = test system: S. aureus clinical strain 030N biofilm
# Source text: as §1
# [10] = test system: S. aureus clinical strain 030N
# Source text: as §1
# [11] = test system: S. aureus clinical strain 009S biofilm
# Source text: as §1
# [12] = test system: S. aureus clinical strain 060S biofilm
# Source text: as §1
# S. aureus ATCC 12598 = settings: ATCC 12598, reference strain
# Source text: as §1
# [13] = test system: S. aureus ATCC 33591 (MRSA); settings: ATCC 33591, 24 h
# Source text: as §1
# [14] = test system: S. aureus ATCC 33591 (MRSA) biofilm; settings: ATCC 33591, 24 h
# Source text: as §1
# [15] = test system: reference and clinical strains of staphylococci (S. aureus); settings: 24 h
# Source text: as §1
# [16] = test system: S. aureus clinical strain 043SC (MRSA) biofilm; settings: clinical strain 043SC biofilm, 24 h
# Source text: as §1
# [17] = test system: S. aureus clinical strain 004N (MRSA); settings: 24 h
# Source text: as §1
# [18] = test system: S. aureus clinical strain 031S
# Source text: as §1
# [19] = test system: S. aureus ATCC 12598 biofilm; settings: ATCC 12598, reference strain
# Source text: as §1
# S. aureus ATCC 9144 = settings: ATCC 9144, reference strain
# Source text: as §1
# [20] = test system: S. aureus clinical strain 060S
# Source text: as §1
# [21] = test system: biofilm of reference and clinical strains of staphylococci (S. aureus); settings: for mean MBEC (initial values) / mean MBEC (corrected values) / mean MBIC (corrected values): 24 h; for mean MBIC (initial values): average over 14 strains, polystyrene 96-well plates, not corrected; for mean MBIC (corrected values): biofilm of reference and clinical strains of staphylococci
# Source text: as §1
# [22] = test system: S. aureus clinical strain 043SC (MRSA); settings: 24 h
# Source text: as §1
# [23] = test system: S. aureus clinical strain 005S biofilm
# Source text: as §1
# [24] = test system: S. aureus ATCC 25923 biofilm; settings: ATCC 25923, reference strain
# Source text: as §1
# [25] = test system: S. aureus clinical strain 051N (MRSA) biofilm; settings: clinical strain 051N biofilm, 24 h
# Source text: as §1
# S. aureus ATCC 25923 = settings: ATCC 25923, reference strain
# Source text: as §1
# [26] = test system: S. aureus clinical strain 051N (MRSA); settings: 24 h
# Source text: as §1
# [27] = test system: human keratinocytes (HaCaT); format: cell-based; settings: 24 h
# Protocol: To evaluate the cytotoxicity of the peptides (IC50), the classic MTT assay on 96-well plates was performed for human keratinocytes (HaCaT) which were acquired from the ATCC. The assay utilizes colorimetric determination of the cell metabolic activity, and the color intensity reflects the number of live cells that can be measured spectrophotometrically. […] DMSO was added to the control cells at a final concentration of 1.0% (v/v), which was related to the maximum concentration of the solvent compounds used in the experiment. After 24 h of incubation at 37 °C (humidified 5% CO2 incubator) with the peptides, a medium containing 1 mg/mL of MTT was added to the wells up to a final concentration of 0.5 mg/mL. Subsequently, the plates were incubated at 37 °C for 4 h. Then, the medium was aspirated, and the formazan product was solubilized with DMSO. The background absorbance at 630 nm was subtracted from that at 570 nm for each well (Epoch, BioTek Instruments, USA). Six replicates were conducted for each concentration. All experiments were repeated at least twice and the resulting IC50 values were calculated with GraFit 7 software (v. 7.0, Erithacus, Berkley, CA, USA).
# [28] = test system: S. aureus ATCC 6538 biofilm; settings: ATCC 6538, reference strain; remark: listed apart in the source
substance,measurement,setting,value
ILRWPWWPWRRK-NH2 [Omiganan AcO^−],MIC,S. aureus ATCC 6538,8 µg/mL
same,MBEC,[1],64 µg/mL
same,MIC,[2],1 µg/mL
same,MBEC,[3],32 µg/mL
same,MBIC,[3],16 µg/mL
same,MBEC,[4],16 µg/mL
same,MBIC,[4],16 µg/mL
same,MIC,[5],8 µg/mL
same,MBEC,[6],16 µg/mL
same,MIC,[7],0.5 µg/mL
same,MBEC,[8],32 µg/mL
same,MBIC,[8],8 µg/mL
same,MBEC,[9],32 µg/mL
same,MBIC,[9],16 µg/mL
same,MIC,[10],8 µg/mL
same,MBEC,[11],16 µg/mL
same,MBIC,[11],1 µg/mL
same,MBEC,[12],16 µg/mL
same,MBIC,[12],1 µg/mL
same,MIC,S. aureus ATCC 12598,8 µg/mL
same,MIC,[13],16 µg/mL
same,MBEC,[14],64 µg/mL
same,MBIC,[14],32 µg/mL
same,mean MIC (initial values),[15],6.82 µg/mL
same,MBEC,[16],16 µg/mL
same,MBIC,[16],16 µg/mL
same,MIC,[17],8 µg/mL
same,MIC,[18],1 µg/mL
same,MBEC,[19],32 µg/mL
same,MBIC,[19],16 µg/mL
same,MIC,S. aureus ATCC 9144,4 µg/mL
same,MIC,[20],1 µg/mL
same,mean MBEC (initial values),[21],38.86 µg/mL
same,mean MBIC (initial values),[21],14.54 µg/mL
same,MIC,[22],8 µg/mL
same,MBEC,[23],16 µg/mL
same,MBIC,[23],1 µg/mL
same,MBEC,[24],128 µg/mL
same,MBIC,[24],32 µg/mL
same,MBEC,[25],64 µg/mL
same,MBIC,[25],16 µg/mL
same,MIC,S. aureus ATCC 25923,16 µg/mL
same,MIC,[26],8 µg/mL
same,IC50,[27],73.72 µg/mL
same,MBIC,[28],32 µg/mL
ILRWPWWPWRRK-NH2 [Omiganan Cl^−],MIC,S. aureus ATCC 6538,8 µg/mL
same,MBEC,[1],32 µg/mL
same,MIC,[2],1 µg/mL
same,MBEC,[3],64 µg/mL
same,MBIC,[3],16 µg/mL
same,MBEC,[4],32 µg/mL
same,MBIC,[4],16 µg/mL
same,MIC,[5],16 µg/mL
same,MBEC,[6],16 µg/mL
same,MIC,[7],0.5 µg/mL
same,MBEC,[8],64 µg/mL
same,MBIC,[8],16 µg/mL
same,MBEC,[9],64 µg/mL
same,MBIC,[9],16 µg/mL
same,MIC,[10],16 µg/mL
same,MBEC,[11],32 µg/mL
same,MBIC,[11],1 µg/mL
same,MBEC,[12],16 µg/mL
same,MBIC,[12],2 µg/mL
same,MIC,S. aureus ATCC 12598,8 µg/mL
same,MIC,[13],16 µg/mL
same,MBEC,[14],64 µg/mL
same,MBIC,[14],32 µg/mL
same,mean MIC (corrected values),[15],6.77 µg/mL
same,mean MIC (initial values),[15],7.96 µg/mL
same,MBEC,[16],32 µg/mL
same,MBIC,[16],16 µg/mL
same,MIC,[17],8 µg/mL
same,MIC,[18],1 µg/mL
same,MBEC,[19],64 µg/mL
same,MBIC,[19],32 µg/mL
same,MIC,S. aureus ATCC 9144,4 µg/mL
same,MIC,[20],1 µg/mL
same,mean MBEC (corrected values),[21],38.86 µg/mL
same,mean MBEC (initial values),[21],45.71 µg/mL
same,mean MBIC (initial values),[21],17.46 µg/mL
same,mean MBIC (corrected values),[21],14.84 µg/mL
same,MIC,[22],8 µg/mL
same,MBEC,[23],32 µg/mL
same,MBIC,[23],1 µg/mL
same,MBEC,[24],64 µg/mL
same,MBIC,[24],32 µg/mL
same,MBEC,[25],64 µg/mL
same,MBIC,[25],32 µg/mL
same,MIC,S. aureus ATCC 25923,16 µg/mL
same,MIC,[26],8 µg/mL
same,IC50,[27],63.99 µg/mL
same,MBIC,[28],32 µg/mL
ILRWPWWPWRRK-NH2 [Omiganan TFA^−],MIC,S. aureus ATCC 6538,4 µg/mL
same,MBEC,[1],32 µg/mL
same,MIC,[2],1 µg/mL
same,MBEC,[3],64 µg/mL
same,MBIC,[3],16 µg/mL
same,MBEC,[4],32 µg/mL
same,MBIC,[4],16 µg/mL
same,MIC,[5],16 µg/mL
same,MBEC,[6],16 µg/mL
same,MIC,[7],0.5 µg/mL
same,MBEC,[8],64 µg/mL
same,MBIC,[8],16 µg/mL
same,MBEC,[9],32 µg/mL
same,MBIC,[9],16 µg/mL
same,MIC,[10],8 µg/mL
same,MBEC,[11],32 µg/mL
same,MBIC,[11],1 µg/mL
same,MBEC,[12],16 µg/mL
same,MBIC,[12],2 µg/mL
same,MIC,S. aureus ATCC 12598,8 µg/mL
same,MIC,[13],16 µg/mL
same,MBEC,[14],32 µg/mL
same,MBIC,[14],32 µg/mL
same,mean MIC (corrected values),[15],7.75 µg/mL
same,mean MIC (initial values),[15],7.75 µg/mL
same,MBEC,[16],32 µg/mL
same,MBIC,[16],16 µg/mL
same,MIC,[17],8 µg/mL
same,MIC,[18],1 µg/mL
same,MBEC,[19],32 µg/mL
same,MBIC,[19],32 µg/mL
same,MIC,S. aureus ATCC 9144,4 µg/mL
same,MIC,[20],2 µg/mL
same,mean MBEC (corrected values),[21],42.29 µg/mL
same,mean MBEC (initial values),[21],42.29 µg/mL
same,mean MBIC (initial values),[21],17.54 µg/mL
same,mean MBIC (corrected values),[21],17.54 µg/mL
same,MIC,[22],8 µg/mL
same,MBEC,[23],16 µg/mL
same,MBIC,[23],2 µg/mL
same,MBEC,[24],128 µg/mL
same,MBIC,[24],32 µg/mL
same,MBEC,[25],64 µg/mL
same,MBIC,[25],32 µg/mL
same,MIC,S. aureus ATCC 25923,16 µg/mL
same,MIC,[26],16 µg/mL
same,IC50,[27],77.10 µg/mL
same,MBIC,[28],32 µg/mL
